Laboratory results from ChEMBL document CHEMBL4706545, “Antiproliferative effect of mitochondria-targeting allobetulin 1,2,3-triazolium salt derivatives and their mechanism of inducing apoptosis of cancer cells” (Eur J Med Chem, 2020).
Blank lines part the entries; values can stand above or below the compound they belong to. The source made the active and inactive calls. The calls are words filed in the database; no cut-off is given here.

Experiments:
[1] = system: ECa-109 cell line; experiment: Induction of apoptosis in human ECa-109 cells assessed as downregulation of Bcl-xl incubated for 48 hrs by Western blot analysis; type: functional, cell-based; settings: dose 1-4 µM
[2] = system: ECa-109 cell line; experiment: Induction of cell cycle arrest in human ECa-109 cells assessed as accumulation in S phase at 2 uM incubated for 48 hrs by PI staining based flow cytometry analysis (reference value: 39.33 %); type: functional
[3] = system: ECa-109 cell line; experiment: Induction of ROS-mediated apoptosis in human ECa-109 cells assessed as late apoptotic cells at 1 uM incubated for 48 hrs by annexin V-PE and 7-AAD staining based flow cytometry analysis (reference value: 3.89 %); type: functional
[4] = system: ECa-109 cell line; experiment: Induction of ROS-mediated apoptosis in human ECa-109 cells assessed as early apoptotic cells at 1 uM incubated for 48 hrs in presence of NAC by annexin V-PE and 7-AAD staining based flow cytometry analysis (reference value: 1.90 %); type: functional
[5] = system: ECa-109 cell line; experiment: Induction of ROS-mediated apoptosis in human ECa-109 cells assessed as early apoptotic cells at 2 uM incubated for 48 hrs in presence of NAC by annexin V-PE and 7-AAD staining based flow cytometry analysis (reference value: 1.90 %); type: functional
[6] = system: ECa-109 cell line; experiment: Cytotoxicity against human ECa-109 cells assessed as reduction in cell viability incubated for 48 hrs by MTT assay; type: functional, cell-based; settings: ECa-109, 48 h
[7] = system: ECa-109 cell line; experiment: Induction of ROS-mediated apoptosis in human ECa-109 cells assessed as late apoptotic cells at 1 uM incubated for 48 hrs in presence of NAC by annexin V-PE and 7-AAD staining based flow cytometry analysis (reference value: 2.98 %); type: functional
[8] = system: ECa-109 cell line; experiment: Induction of apoptosis in human ECa-109 cells assessed as upregulation of Bax incubated for 48 hrs by Western blot analysis; type: functional, cell-based; settings: dose 1-4 µM
[9] = system: HepG2; experiment: Cytotoxicity against human HepG2 cells assessed as reduction in cell viability incubated for 48 hrs by MTT assay; type: functional, cell-based; settings: HepG2, 48 h
[10] = system: ECa-109 cell line; experiment: Induction of ROS-mediated apoptosis in human ECa-109 cells assessed as necrotic cells at 2 uM incubated for 48 hrs by annexin V-PE and 7-AAD staining based flow cytometry analysis (reference value: 0.729 %); type: functional
[11] = system: ECa-109 cell line; experiment: Induction of ROS-mediated apoptosis in human ECa-109 cells assessed as late apoptotic cells at 2 uM incubated for 48 hrs in presence of NAC by annexin V-PE and 7-AAD staining based flow cytometry analysis (reference value: 2.98 %); type: functional
[12] = system: HeLa; experiment: Cytotoxicity against human HeLa cells assessed as reduction in cell viability incubated for 48 hrs by MTT assay; type: functional, cell-based
[13] = system: SGC-7901; experiment: Cytotoxicity against human SGC-7901 cells assessed as reduction in cell viability incubated for 48 hrs by MTT assay; type: functional, cell-based; settings: SGC-7901, 48 h
[14] = system: ECa-109 cell line; experiment: Induction of apoptosis in human ECa-109 cells assessed as viable cells at 4 uM incubated for 48 hrs by annexin-V-FITC and PI staining based fluorescence microscopic analysis (reference value: 95.8 %); type: functional; settings: read-out: Activity
[15] = system: L02; experiment: Cytotoxicity against human HL7702 cells assessed as reduction in cell viability incubated for 48 hrs by MTT assay; type: ADME, cell-based; settings: L02, 48 h
[16] = system: ECa-109 cell line; experiment: Induction of apoptosis in human ECa-109 cells assessed as necrotic cells at 2 uM incubated for 48 hrs by annexin-V-FITC and PI staining based fluorescence microscopic analysis (reference value: 1.19 %); type: functional
[17] = system: SGC-7901; experiment: Induction of cell cycle arrest in human SGC-7901 cells assessed as accumulation in G2/M phase at 1 uM incubated for 48 hrs by PI staining based flow cytometry analysis (reference value: 11.48 %); type: functional
[18] = system: SGC-7901; experiment: Induction of cell cycle arrest in human SGC-7901 cells assessed as accumulation in S phase at 4 uM incubated for 48 hrs by PI staining based flow cytometry analysis (reference value: 31.13 %); type: functional
[19] = system: SGC-7901; experiment: Induction of ROS-mediated apoptosis in human SGC-7901 cells assessed as necrotic cells at 4 uM incubated for 48 hrs by annexin V-PE and 7-AAD staining based flow cytometry analysis (reference value: 0.733 %); type: functional
[20] = system: SGC-7901; experiment: Induction of apoptosis in human SGC-7901 cells assessed as upregulation of Bax incubated for 48 hrs by Western blot analysis; type: functional, cell-based; settings: dose 1-4 µM
[21] = system: SGC-7901; experiment: Induction of mitochondrial membrane potential disruption in human SGC-7901 cells incubated for 48 hrs by JC-1 dye based flow cytometry analysis; settings: Mitochondria, dose 1-4 µM
[22] = system: SGC-7901; experiment: Induction of ROS-mediated apoptosis in human SGC-7901 cells assessed as early apoptotic cells at 4 uM incubated for 48 hrs by annexin V-PE and 7-AAD staining based flow cytometry analysis (reference value: 1.89 %); type: functional
[23] = system: SGC-7901; experiment: Induction of ROS-mediated apoptosis in human SGC-7901 cells assessed as early apoptotic cells at 2 uM incubated for 48 hrs in presence of NAC by annexin V-PE and 7-AAD staining based flow cytometry analysis (reference value: 1.15 %); type: functional
[24] = system: SGC-7901; experiment: Induction of apoptosis in human SGC-7901 cells assessed as necrotic cells at 2 uM incubated for 48 hrs by annexin-V-FITC and PI staining based fluorescence microscopic analysis (reference value: 1.03 %); type: functional
[25] = system: SGC-7901; experiment: Induction of ROS-mediated apoptosis in human SGC-7901 cells assessed as necrotic cells at 4 uM incubated for 48 hrs in presence of NAC by annexin V-PE and 7-AAD staining based flow cytometry analysis (reference value: 0.623 %); type: functional
[26] = system: SGC-7901; experiment: Induction of apoptosis in human SGC-7901 cells at 1 to 4 uM incubated for 48 hrs by AO/PI staining based fluorescence microscopic analysis; type: functional, cell-based; settings: dose 1-4 µM
[27] = system: SGC-7901; experiment: Induction of apoptosis in human SGC-7901 cells assessed as viable cells at 2 uM incubated for 48 hrs by annexin-V-FITC and PI staining based fluorescence microscopic analysis (reference value: 93.8 %); type: functional; settings: read-out: Activity
[28] = system: SGC-7901; experiment: Induction of ROS-mediated apoptosis in human SGC-7901 cells assessed as early apoptotic cells at 1 uM incubated for 48 hrs by annexin V-PE and 7-AAD staining based flow cytometry analysis (reference value: 1.89 %); type: functional
[29] = system: SGC-7901; experiment: Induction of cell cycle arrest in human SGC-7901 cells assessed as accumulation in S phase at 2 uM incubated for 48 hrs by PI staining based flow cytometry analysis (reference value: 31.13 %); type: functional
[30] = system: SGC-7901; experiment: Induction of apoptosis in human SGC-7901 cells assessed as concentrated chromatin at 1 to 4 uM incubated for 48 hrs by Hoechst staining based fluorescence microscopic analysis; type: functional, cell-based; settings: dose 1-4 µM
[31] = system: SGC-7901; experiment: Induction of ROS-mediated apoptosis in human SGC-7901 cells assessed as late apoptotic cells at 4 uM incubated for 48 hrs by annexin V-PE and 7-AAD staining based flow cytometry analysis (reference value: 3.82 %); type: functional
[32] = system: SGC-7901; experiment: Induction of ROS-mediated apoptosis in human SGC-7901 cells assessed as late apoptotic cells at 1 uM incubated for 48 hrs in presence of NAC by annexin V-PE and 7-AAD staining based flow cytometry analysis (reference value: 3.45 %); type: functional
[33] = system: SGC-7901; experiment: Induction of ROS-mediated apoptosis in human SGC-7901 cells assessed as viable cells at 1 uM incubated for 48 hrs by annexin V-PE and 7-AAD staining based flow cytometry analysis (reference value: 93.6 %); type: functional; settings: read-out: Activity

SMILES: COc1ccccc1Cn1n[n+](C)c2c1C(C)(C)[C@@H]1CC[C@]3(C)[C@H](CC[C@@H]4[C@H]5[C@H]6OC[C@@]5(CCC6(C)C)CC[C@]43C)[C@@]1(C)C2.[I-]
Activity [1]: Dose-dependent effect
Activity [2]: 40.19%
Activity [3]: 18.6%
Activity [4]: 8.01%
Activity [5]: 10.1%
IC50 [6]: 1040 nM
Activity [7]: 13.7%
Activity [8]: Dose-dependent effect
IC50 [9]: 1520 nM
Activity [10]: 4.87%
Activity [11]: 18.2%
IC50 [12]: 1490 nM
IC50 [13]: 1920 nM
viability at 4 µM [14]: 1.26%
IC50 [15]: 1590 nM
Activity [16]: 1.32%

Activity [21]: Dose-dependent effect
SMILES: C[n+]1nn(Cc2c(F)cccc2Cl)c2c1C[C@]1(C)[C@H]3CC[C@@H]4[C@H]5[C@H]6OC[C@@]5(CCC6(C)C)CC[C@@]4(C)[C@]3(C)CC[C@H]1C2(C)C.[I-]
Activity [17]: 5.39%
Activity [18]: 22.27%
IC50 [6]: 2630 nM
Activity [19]: 0.028%
Activity [20]: Dose-dependent effect
Activity [22]: 0.199%
Activity [23]: 19.5%
IC50 [9]: 2620 nM
Activity [24]: 1.56%
Activity [25]: 2.66%
Activity [26]: Active
viability at 2 µM [27]: 64.6%
Activity [28]: 13.7%
Activity [29]: 15.76%
Activity [30]: Active
Activity [31]: 99.6%
Activity [32]: 4.96%
IC50 [12]: 2160 nM
IC50 [13]: 1120 nM
viability at 1 µM [33]: 80.5%
IC50 [15]: 2330 nM
